{"source": "patent US12042492B2", "about": "(priority 2020, dated 2024)", "assay_type_in_all_cases": "cell-based, mouse", "key": {"N2a cells [1]": {"tested_on": "N2a cells", "test": "Cell viability (MTT assay) in N2a cells", "conditions": "ligand treated N2a cells relative to untreated cells; P=0.038", "protocol": "(§1) The N2a cells grown for 6 days in a serum-free medium (1:1 mixture of DMEM and OptiMEM, plus penicillin and streptomycin (Invitrogen, Carlsbad, CA, USA) until the cells developed neuronal processes. As shown in (FIG. 10), these cells were used for 4 groups—one control group and 3 treatment groups. 1) untreated N2a cells (the control group), 2) N2a cells treated with ligand 1 (N2a+ligand 1), 3) N2a cells transfected mAPP with the (lipofectamine) (20 μM final concentration for 6 hrs (mAPP), 4) N2a cells transfected with mAPP cDNA for 6 hrs, treated with ligand 1 (mAPP+ligand 1 treatment group), N2a cells treated with ligand 1 for 24 hrs and then treated with the mAPP cDNA for 6 hrs (ligand 1+mAPP treatment group). As shown in (FIG. 10), the inventors performed 4 independent cell cultures and treatments for all experiments (n=4).\nCell viability and apoptotic cell death MTT assay. Ligand 1 treated N2a cells, cell based apoptosis assay was performed using Cellometer Vision CBA Image Cytometry System (Nexcelom Bioscience LLC, Lawrence, MA) with two fluorophore Annexin V-FITC and Propidium Iodide (PI) staining solution, according to manufacturer's instructions. Briefly, cells were harvested using trypsin, then spin down at 300 g for three minutes and pellets were washed with 1×PBS, cells were counted using hematocytometer. […]"}, "N2a cells [2]": {"tested_on": "N2a cells", "test": "qRT-PCR mRNA expression in N2a cells treated with ligand 1", "protocol": "as §1\nmRNA levels of mitochondrial dynamics and mitochondrial biogenesis and synaptic genes. Using the reagent TriZol (Invitrogen), the inventors isolated total RNA from 4 independent treatments of N2a cells (n=4) from control (untreated N2a cells) and experimental treatments (N2a cells treated with Ligand 1; N2a cells transfected with mAPP; N2a cells transfected with mAPP and then treated with Ligand 1. Using primer express Software (Applied Biosystems), the inventors designed the oligonucleotide primers for the housekeeping genes β-actin, GDPH; APP-related genes (APP, BACE1 and PSN1); mitochondrial structural genes; fission (Drp1 and Fis1); fusion genes (MFN1, MFN2, Opa1) (54), mitochondrial biogenesis genes (PGC1α, Nrf1, Nrf2, and Tfam) (Manczak et al., 2019), and synaptic proteins (SYN, PSD95 and MAP2). The primer sequences and amplicon sizes are listed in (Table 1). With SYBR-Green chemistry-based quantitative real-time RT-PCR, the inventors measured mRNA expression of the genes mentioned above as described by Manczak et al. 2019(54). Briefly, 2 μg of DNAse-treated total RNA was used as starting material, to which the inventors added 1 μl of oligo (dT), 1 μl of 10 mM dNTPs, 4 μl of 5× first strand buffer, 2 μl of 0.1 M DTT, and 1 μl RNAse outout. The reagents RNA, dT), and dNTPs were mixed first, then heated at 65° C. for 5 min, and finally chilled on ice until the remaining components were added. The samples were incubated at 42° C. for 2 min, and then 1 μl of Superscript II (40 U/μl) was added. The samples were then incubated at 42° C. for 50 min, at which time the reaction was inactivated by heating at 70° C. for 15 min.\nQuantitative real-time PCR amplification reactions were performed in N2a cells in an ABI Prism 7900 sequence detection system (Applied Biosystems, Foster City, CA) in a 25-μl volume of total reaction mixture. The reaction mixture consisted of 1×PCR buffer containing SYBR-Green; 3 mM MgCl2; 100 nm of each primer; 200 nm of dATP, dGTP, and dCTP each; 400 nm of dUTP; 0.01 U/μl of AmpErase UNG; and 0.05 U/μl of AmpliTaq Gold. A 20 ng cDNA template was added to each reaction mixture.\nThe CT-values of β-actin was tested to determine the unregulated endogenous reference gene in N2a cells that were treated with Aβ and protective molecules, and in untreated N2a cells. In the latter case, the CT-value was similar in untreated and N2a cells treated with MTAs and Aβ. The CT-value is an important quantitative parameter in real-time PCR analysis as described in Gutala and Reddy (2004) (55). All RT-PCR reactions were carried out in triplicate, with no template control. The PCR conditions were: 50° C. for 2 min and 95° C. for 10 min, followed by 40 cycles of 95° C. for 15 sec and 60° C. for 1 min. The fluorescent spectra were recorded during the elongation phase of each PCR cycle. To distinguish specific amplicons from non-specific amplifications, a dissociation curve was generated. […]"}, "mAPP N2a cells": {"tested_on": "mAPP N2a cells", "test": "Immunoblotting analysis of protein levels in mAPP N2a cells", "conditions": "immunoblot; for Nrf1 protein level / Nrf2 protein level: P=0.004"}, "[3]": {"conditions": "N2a + Ligand1 relative to untreated N2a cells"}, "[4]": {"conditions": "N2a + Ligand1 relative to untreated N2a cells, negative = decrease"}, "[5]": {"conditions": "ligand 1 treated N2a cells relative to untreated cells, size of the decrease"}, "[6]": {"conditions": "ligand 1 treated N2a cells relative to untreated cells, size of the decrease, no statistical significance"}, "[7]": {"conditions": "mAPP+ligand 1 relative to mAPP cells, P=0.001"}, "[8]": {"conditions": "mAPP+ligand 1 relative to mAPP cells, P=0.002, listed as ligand 1"}, "[9]": {"conditions": "mAPP+ligand 1 relative to mAPP cells, listed as ligand 1"}, "[10]": {"conditions": "mAPP+ligand 1 relative to mAPP cells, listed as ligand1"}, "[11]": {"conditions": "mAPP+ligand 1 relative to mAPP cells, P=0.01, listed as ligand 1"}, "[12]": {"conditions": "mAPP+ligand 1 relative to mAPP cells, P=0.01, listed as ligand1"}, "[13]": {"conditions": "mAPP+ligand 1 relative to mAPP cells, P=0.02"}}, "note": "Entries after “also recorded” stand apart in the source; their conditions may differ. Marks after values point to notes of the source that are not given here."}
{"substance": "[(6As,8S,10aS,12aS)-10a, 12a-dimethyl-2-oxo-3,4,4a,4b,5,6,6a,7,8,9,10,10b,11,12-tetradecahydro-1H-naphtho[2,1-f]quinolin-8-yl] 4-[4-[bis(2-chloroethyl)amino]phenyl]butanoate [Ligand 1]", "values": [{"measurement": "Cell viability", "setting": "N2a cells [1]", "result": "significantly increased"}, {"measurement": "mRNA fold change Mfn1", "setting": "N2a cells [2]; [3]", "result": 1.1, "unit": "fold"}, {"measurement": "mRNA fold change Mfn2", "setting": "N2a cells [2]; [3]", "result": 1.2, "unit": "fold"}, {"measurement": "mRNA fold change Nrf1", "setting": "N2a cells [2]; [3]", "result": 1.2, "unit": "fold"}, {"measurement": "mRNA fold change Nrf2", "setting": "N2a cells [2]; [3]", "result": 1.3, "unit": "fold"}, {"measurement": "mRNA fold change OPA1", "setting": "N2a cells [2]; [3]", "result": 1.4, "unit": "fold"}, {"measurement": "mRNA fold change PSD95", "setting": "N2a cells [2]; [3]", "result": 1.2, "unit": "fold"}, {"measurement": "mRNA fold change Synaptophysin", "setting": "N2a cells [2]; [3]", "result": 1.4, "unit": "fold"}, {"measurement": "mRNA fold change TFAM", "setting": "N2a cells [2]; [3]", "result": 1.2, "unit": "fold"}, {"measurement": "mRNA fold change PGC1a", "setting": "N2a cells [2]; N2a + Ligand1 relative to untreated N2a cells, listed as Ligand1", "result": "1.6* fold"}, {"measurement": "mRNA fold change PGC1a", "setting": "N2a cells [2]; N2a + Ligand1 relative to untreated N2a cells, listed as ligand 1", "result": 1.6, "unit": "fold"}, {"measurement": "mRNA fold change APP", "setting": "N2a cells [2]; [4]", "result": "−1.2", "unit": "fold"}, {"measurement": "mRNA fold change BACE1", "setting": "N2a cells [2]; [4]", "result": "−1.8** fold"}, {"measurement": "mRNA fold change Drp1", "setting": "N2a cells [2]; [4]", "result": "−1.1", "unit": "fold"}, {"measurement": "mRNA fold change Fis1", "setting": "N2a cells [2]; [4]", "result": "−1.1", "unit": "fold"}, {"measurement": "mRNA fold change Presenilin1", "setting": "N2a cells [2]; [4]", "result": "−1.3", "unit": "fold"}, {"measurement": "APP mRNA, fold decreased", "setting": "N2a cells [2]; [5]", "result": 1.8, "unit": "fold"}, {"measurement": "BACE1 mRNA, fold decreased", "setting": "N2a cells [2]; [5]", "result": 1.2, "unit": "fold"}, {"measurement": "PS1 mRNA, fold decreased", "setting": "N2a cells [2]; [5]", "result": 1.3, "unit": "fold"}, {"measurement": "Drp1 mRNA, fold reduced", "setting": "N2a cells [2]; [6]", "result": 1.1, "unit": "fold"}, {"measurement": "Fis1 mRNA, fold reduced", "setting": "N2a cells [2]; [6]", "result": 1.1, "unit": "fold"}, {"measurement": "BACE1 protein level", "setting": "mAPP N2a cells; ligand 1 treated cells relative to mAPP cells", "result": "significantly reduced"}, {"measurement": "C-terminal fragment C99 protein level", "setting": "mAPP N2a cells; [7]", "result": "significantly decreased; also recorded: significantly reduced"}, {"measurement": "Fis1 protein level", "setting": "mAPP N2a cells; [7]", "result": "significantly decreased"}, {"measurement": "C-terminal fragment C83 protein level", "setting": "mAPP N2a cells; [8]", "result": "significantly decreased; also recorded: significantly reduced"}, {"measurement": "Mfn1 protein level", "setting": "mAPP N2a cells; [8]", "result": "increased"}, {"measurement": "Mfn1 protein level", "setting": "mAPP N2a cells; mAPP+ligand 1 relative to mAPP cells, P=0.002, listed as ligand1", "result": "significantly increased"}, {"measurement": "Nrf1 protein level", "setting": "mAPP N2a cells; [9]", "result": "increased"}, {"measurement": "Nrf2 protein level", "setting": "mAPP N2a cells; [9]", "result": "increased"}, {"measurement": "Nrf1 protein level", "setting": "mAPP N2a cells; [10]", "result": "significantly increased"}, {"measurement": "Nrf2 protein level", "setting": "mAPP N2a cells; [10]", "result": "significantly increased"}, {"measurement": "Drp1 protein level", "setting": "mAPP N2a cells; mAPP+ligand 1 relative to mAPP cells, P=0.01", "result": "significantly decreased"}, {"measurement": "Opa1 protein level", "setting": "mAPP N2a cells; [11]", "result": "increased"}, {"measurement": "PGC1α protein level", "setting": "mAPP N2a cells; [11]", "result": "increased"}, {"measurement": "Opa1 protein level", "setting": "mAPP N2a cells; [12]", "result": "significantly increased"}, {"measurement": "PGC1α protein level", "setting": "mAPP N2a cells; [12]", "result": "significantly increased"}, {"measurement": "PSD95 protein level", "setting": "mAPP N2a cells; [13]", "result": "significantly increased"}, {"measurement": "Synaptophysin protein level", "setting": "mAPP N2a cells; [13]", "result": "significantly increased"}, {"measurement": "Full-length mutant APP protein level", "setting": "mAPP N2a cells; mAPP+ligand 1 relative to mAPP cells, P=0.03", "result": "significantly decreased; also recorded: significantly reduced"}, {"measurement": "MAP2 protein level", "setting": "mAPP N2a cells; mAPP+ligand 1 relative to mAPP cells, P=0.04", "result": "significantly increased"}, {"measurement": "Mfn2 protein level", "setting": "mAPP N2a cells; [9]", "result": "increased"}, {"measurement": "TFAM protein level", "setting": "mAPP N2a cells; [9]", "result": "increased"}, {"measurement": "Mfn2 protein level", "setting": "mAPP N2a cells; [10]", "result": "significantly increased"}, {"measurement": "TFAM protein level", "setting": "mAPP N2a cells; [10]", "result": "significantly increased"}]}
